Experimental data published in patent US20170121752A1, “DETECTION OF ACRYLIC ACID” (AGENCY FOR SCIENCE, TECHNOLOGY AND RESEARCH, priority 2014, published 2017).
Entries after “also recorded” stand apart in the source; their conditions may differ. Each block holds one compound with its values, some of them ahead of it.

Tests used:
[1] = Fluorescence assay of the photoactivated reaction between diaryltetrazole and acrylic acid; conditions: for λex,max / λem,max: 100 μM compound reacted with acrylic acid; for λex,max / Fold increase in fluorescence 100 μM / Fold increase in fluorescence 10 mM / λem,max: photoirradiation 1 minute at 302 nm; for Fold increase in fluorescence 100 μM / Fold increase in fluorescence 10 mM: 100 μM compound; for Fold increase in fluorescence 100 μM / pH of signal detection peak: 100 μM acrylic acid; for Fold increase in fluorescence 10 mM: 10 mM acrylic acid; for fluorescence increases above the background: reacted with acrylic acid, summary of Table 1
Protocol: A solution containing the diaryltetrazole (0.022 mmol) and acrylic acid (0.02 to 0.050 mmol) was irradiated with a hand-held 302-nm UV lamp for 1 minute. Experiments were performed in a black 96-well plate with a total reaction volume of 100 The maximum excitation wavelengths indicated in Table 1 were used for each of the scans. The fluorescence emission spectrums of the reaction are shown in FIG. 1a to if using 10 μM of acrylic acid. The spectra for control experiments where either of the reactants was omitted have also been depicted in each of FIGS. 1a to 1f.
As mentioned earlier, the lower limit of detection of acrylic acid for compound 4 was 500 nM of acrylic acid upon a 1 minute photoactivation period with UV light at 302 nm. […]
As described above, compound 4 was used in further experiments to detect acrylic acid. The reaction between compound 4 and acrylic acid was carried out in water with a photoactivation time of 1 minute at 302 nm. Using 100 μM of 4, acrylic acid concentrations from 1 μM to 100 μM were readily detectable with a fluorescence microplate reader (see FIG. 3 and example 9).

[2] = test system: C. propionicum; experiment: Fluorescence signal of bacterial cell lysates grown with 3-butynoic acid; assay type: cell-based, Clostridium propionicum; conditions: media with 5 and 10 mM 3-butynoic acid, lysates treated with compound 4
Protocol: The cell lysates were treated with […] of diaryltetrazole compound 4 for fluorescence detection. […] 3-Butynoic acid, an acyl CoA dehydrogenase inhibitor, may be capable of promoting accumulation of acrylyl CoA in cells. In C. propionicum, acrylyl CoA is normally converted to propionyl CoA. However, in the presence of 3-butynoic acid, this reaction is inhibited. […] C. propionicum naturally produces acrylic acid but E. Coli. may not naturally produce acrylic acid.

[3] = Fluorescence assay of the photoactivated reaction between diaryltetrazole and acrylamide
Protocol: To substantiate the above, the reaction between compound 4 and acrylic acid (AA), and the reaction between compound 4 and acrylamide (a derivative), were carried out in buffers from pH 1 to pH 13. […] Deprotonation of the chromophore appears to result in higher fluorescence intensity of the pyrazoline product.
100 μM acrylic acid and 2 different grades of acrylamides, particularly gel electrophoresis acrylamide (GE) and molecular biology acrylamide (MB), were tested with 100 μM of compound 4 over the entire pH range. The reaction between compound 4 and acrylic acid/acrylamide was carried out in a phosphate buffer (having different pH as indicated) in 10% DMSO with a photoactivation time of 1 minute at 302 nm. Fluorescence was measured using a fluorescence microplate reader. […] Clearly, the detection method of the present disclosure is capable of detecting acrylate derivatives.
Compound 4 was also used to detect acrylamide in vitro. The reaction between compound 4 and acrylamide was carried out in phosphate buffer at pH 9.0 with 10% DMSO with a photoactivation time of 1 minute at 302 nm. Using 100 μM of compound 4, acrylamide concentrations from 1 μM to 100 μM were readily detectable with a fluorescence microplate reader as shown in FIG. 18.
10% (v/v) of different oils in a phosphate buffer of pH 9.0 containing 1% Tween-20 were spiked in with 10 mM Acrylamide (gel electrophoresis grade). Controls were uncontaminated. Reactions of these mixtures were set up with 100 μM of compound 4 with a photoactivation time of 1 minute at 302 nm. Fluorescence was measured using a fluorescence microplate reader.
100 μM of acrylic acid and acrylamide (gel electrophoresis grade) were tested with 100 μM of compound 4 over a pH range of 7 to 13. The reaction between compound 4 and acrylic acid/acrylamide was carried out in a phosphate buffer (having different indicated pH) in 10% DMSO with a photoactivation time of 1 minute at 302 nm. Fluorescence was measured using a fluorescence microplate reader.

[4] = Reaction monitoring of photoactivated cycloaddition using HPLC and fluorescence
Protocol: 10 mM of compound 4 was dissolved in dichloromethane and methanol (1:1). A separate solution of 10 mM of acrylic acid was dissolved in methanol. 10 μL of 10 mM of compound 4 and 10 μL of 10 mM of acrylic acid were then dissolved in 80 μL of methanol. After vigorous stirring, the mixture was irradiated with a 302 nm UV lamp for 0 seconds, 15 seconds, 30 seconds, 45 seconds, 60 seconds, 90 seconds and 120 seconds, respectively. An aliquot (10 μL) of reaction solution from each sample was withdrawn and immediately injected in the HPLC column. Compound 4 (denoted as A) and the pyrazoline product 4P (denoted as B) in each sample was monitored by UV absorbance at 254 nm and 370 nm. A linear gradient of 5 to 90% MeOH was applied after 3 minutes for 10 minutes, which is then kept constant for 10 minutes before a 7 minutes linear declining gradient of 90 to 5% MeOH. Compound 4 and product 4P were eluted at about 13.4 minutes and 12.4 minutes respectively.
The kinetic reaction studies involving diaryltetrazole compound 4 and acrylic acid were carried out by monitoring with HPLC from 0 to 120 seconds as described above.
Fluorescence turn on of the reaction mixture occurred after 15 seconds. The left vial to the right vial are labelled as no UV activation, 15 seconds, 30 seconds, 45 seconds, 60 seconds, 90 seconds, 120 seconds of UV activation, respectively. […]

[5] = test system: E. coli cells; experiment: In vivo detection of acrylic acid in E. coli cells by fluorescence microscopy; assay type: cell-based; conditions: 100 μM acrylic acid 10 minutes, 100 μM compound 4 30 min, UV 302 nm 1 minute
Protocol: The use of compound 4 as an acrylic acid sensor in vivo was tested in this example. E. coli cells were grown to late log phase (OD600˜1.0) and treated with 100 μM acrylic acid for 10 minutes at 37° C. Upon washing, cells were treated with 100 μM of compound 4 and incubated at 37° C. for 30 min in the dark. The cells were washed, pelleted, suspended in 1×PBS and mounted on a slide. They were then exposed to UV light at 302 nm for 1 minute and imaged under a fluorescence microscope (using DAPI filters) after about 2 hours of recovery at room temperature. Control cells include untreated cells; cells treated with either acrylic acid or compound 4 alone and without UV treatment.

[6] = test system: C. propionicum cells; experiment: In vivo detection of acrylic acid in C. propionicum cells by fluorescence microscopy and lysate fluorescence; assay type: cell-based, Clostridium propionicum; conditions: 100 μM compound 4, 30 min, UV 302 nm 1 minute, with or without 100 μM acrylic acid added
Protocol: To test the diaryltetrazole sensor for in vivo production of acrylic acid, we applied compound 4 to C. propionicum cells. C. propionicum cells were grown to late log phase (OD600˜1.0) in an anoxia chamber and treated with 100 μM of compound 4. After incubating at 37° C. for 30 min in the dark, cells were washed, pelleted, suspended in PBS buffer and mounted on a slide. Cells were exposed to 302 nm UV light for 1 minute and imaged under a fluorescence microscope (using DAPI filters) after about 2 hours of recovery at room temperature. Control cells include cells treated with acrylic acid and compound 4 to observe positive fluorescence; untreated cells and cells treated with acrylic acid alone and without UV treatment. […] This indicates the production of acrylic acid intermediates in these cells and the diaryltetrazole probe is capable of detecting them.

λex,max [1]: 368 nm
Compound: COc1ccc(-n2nnc(-c3ccccc3)n2)cc1 [Compound 7]
Fold increase in fluorescence 100 μM [1]: 1.43
Fold increase in fluorescence 10 mM [1]: 3.38
fluorescence increases above the background [1]: around 3 fold

λem,max [1]: 482 nm
λex,max [1]: 395 nm
Compound: COC(=O)c1ccc(-c2nnn(-c3ccccc3)n2)cc1 [Compound 1]
Fold increase in fluorescence 10 mM [1]: 3.23
fluorescence increases above the background [1]: around 3 fold

λex,max [1]: 371 nm
Compound: COc1ccc(-n2nnc(-c3ccc(C)cc3)n2)cc1 [Compound 6]
Fold increase in fluorescence 10 mM [1]: 3.87
fluorescence increases above the background [1]: around 3 fold

λem,max [1]: 482 nm
λex,max [1]: 380 nm
Compound: COC(=O)c1ccc(-c2nnn(-c3ccc(F)cc3F)n2)cc1 [Compound 3]
Fold increase in fluorescence 100 μM [1]: 1.12
Fold increase in fluorescence 10 mM [1]: 3.17
fluorescence increases above the background [1]: around 3 fold

Second part, the compound before the results:

Compound: Cc1ccc(-c2nnn(-c3ccc(N)cc3)n2)cc1 [Compound 5]
fluorescence / reactivity towards acrylic acid ([1]; reaction with acrylic acid, photoactivation): No fluorescence; also recorded: unreactive towards acrylic acid, forming little or no fluorescent product

Compound: C#CCC(=O)O [3-butynoic acid, 3-Butynoic acid]
fluorescence signal of cell lysates [2]: fluorescence signal is higher

Compound: O=C(O)c1ccc(-c2nnn(-c3ccccc3)n2)cc1 [Compound 4]
pH of signal detection peak ([1]; 100 μM compound 4, entire pH range, phosphate buffer 10% DMSO (FIG. 17)): 11.0 pH
pH of signal detection peak ([1]; 100 μM compound 4, pH range 7 to 13 (FIG. 21)): 10.0 pH
fluorescence detection of acrylic acid in LB media and minimum media ([1]; 100 μM compound 4, 1 min photoactivation): readily detected before the completion of photoactivation
λem,max [1]: 520 nm
λex,max [1]: 380 nm
Fold increase in fluorescence 100 μM [1]: 132
Fold increase in fluorescence 10 mM [1]: 5.15
lower limit of detection of acrylic acid ([1]; 1 minute photoactivation with UV light at 302 nm): 500 nM
Fold increase in fluorescence ([1]; Table 2: 100 μM compound 4, 500 nM acrylic acid): 1.12
Fold increase in fluorescence ([1]; Table 2: 100 μM compound 4, 1 μM acrylic acid): 1.58
Fold increase in fluorescence ([1]; Table 2: 100 μM compound 4, 10 μM acrylic acid): 17
Fold increase in fluorescence ([1]; Table 2: 100 μM compound 4, 100 μM acrylic acid): 132
fluorescence of the probe alone (control experiments) ([1]; buffers pH 1 to pH 13, without analyte): not fluorescent at all pH tested
pH of fluorescent peak ([3]; 100 μM acrylamide (gel electrophoresis grade), 100 μM compound 4, pH range 7 to 13 (FIG. 21)): 9.0 pH
pH of signal detection peak ([3]; 100 μM acrylamide, 100 μM compound 4, entire pH range, phosphate buffer 10% DMSO (FIG. 17)): 9.0 pH
detection of acrylamide in a complex organic/detergent mixture ([3]; 10% (v/v) oils, phosphate buffer pH 9.0, 1% Tween-20, 10 mM acrylamide, 100 μM compound 4): able to detect acrylamide in a complex organic/detergent mixture
time to completion of the reaction with acrylic acid ([4]; HPLC monitoring, 302 nm UV, methanol): ≤ 90 s
time to fluorescence turn on of the reaction mixture ([4]; compound 4 and acrylic acid in methanol, UV activation): ≤ 15 s
fluorescence of bacterial cells [5]: only fluorescent in the presence of both acrylic acid and compound 4
fluorescence of cells [6]: cells were fluorescent

Compound: COC(=O)c1ccc(-c2nnn(-c3ccc(F)cc3)n2)cc1 [Compound 2]
λem,max [1]: 487 nm
λex,max [1]: 392 nm
Fold increase in fluorescence 100 μM [1]: 1.12
Fold increase in fluorescence 10 mM [1]: 3.38
fluorescence increases above the background [1]: around 3 fold
